The target of one data set is T1, CYP2B6 (Homo sapiens, UniProt P20813).
T1 sequence (P20813 1-491): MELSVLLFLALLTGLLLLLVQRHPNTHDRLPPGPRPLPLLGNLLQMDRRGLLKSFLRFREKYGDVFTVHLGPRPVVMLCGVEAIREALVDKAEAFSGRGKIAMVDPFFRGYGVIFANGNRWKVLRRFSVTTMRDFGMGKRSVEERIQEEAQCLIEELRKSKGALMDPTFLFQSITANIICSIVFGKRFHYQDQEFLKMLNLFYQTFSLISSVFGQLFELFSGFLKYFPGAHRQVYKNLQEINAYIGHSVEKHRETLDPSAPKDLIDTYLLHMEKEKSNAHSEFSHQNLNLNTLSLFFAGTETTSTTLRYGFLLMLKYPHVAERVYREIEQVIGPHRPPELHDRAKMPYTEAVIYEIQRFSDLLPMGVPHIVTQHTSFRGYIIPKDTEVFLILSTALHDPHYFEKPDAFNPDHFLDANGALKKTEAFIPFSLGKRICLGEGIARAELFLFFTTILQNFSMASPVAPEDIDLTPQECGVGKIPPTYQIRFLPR
To be noted: microsomes.

For a further data set, the target named is T2, CYP1A2 (Homo sapiens, UniProt P05177).
T2 sequence (P05177 1-516): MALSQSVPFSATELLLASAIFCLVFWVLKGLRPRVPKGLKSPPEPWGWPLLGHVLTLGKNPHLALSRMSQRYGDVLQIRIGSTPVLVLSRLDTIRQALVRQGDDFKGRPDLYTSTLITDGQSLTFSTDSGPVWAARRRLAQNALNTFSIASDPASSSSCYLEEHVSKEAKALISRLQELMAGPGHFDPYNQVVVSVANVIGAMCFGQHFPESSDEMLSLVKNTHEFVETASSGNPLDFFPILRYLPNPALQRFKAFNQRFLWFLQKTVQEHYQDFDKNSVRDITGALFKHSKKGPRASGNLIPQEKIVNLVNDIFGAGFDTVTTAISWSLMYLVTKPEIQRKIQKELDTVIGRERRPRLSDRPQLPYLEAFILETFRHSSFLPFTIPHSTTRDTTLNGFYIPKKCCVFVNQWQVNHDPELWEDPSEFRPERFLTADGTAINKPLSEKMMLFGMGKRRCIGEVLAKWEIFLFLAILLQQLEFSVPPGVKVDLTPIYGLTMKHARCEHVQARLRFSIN
To be noted: microsomes; for CYP1A2 activity expressed as % Vehicle Control: human, 10 min, pH 7.4.

In data set [1] the test system is CYP3A4/5. The experiment in a line: in vitro. The following applies: human, microsomes, pH 7.4.
For data set [2], the system named is CYP3A4/5. The experiment in a line: Direct CYP3A4/5 inhibition, midazolam 1′-hydroxylation in pooled human liver microsomes. To be noted: pH 7.4, probe midazolam 2 μM (1′-hydroxylation). (In general: Liver microsomes are a subcellular fraction often used to study metabolism.)
For a further data set, the target named is T3, CYP2C8 (Homo sapiens, UniProt P10632).
T3 sequence (P10632 1-490): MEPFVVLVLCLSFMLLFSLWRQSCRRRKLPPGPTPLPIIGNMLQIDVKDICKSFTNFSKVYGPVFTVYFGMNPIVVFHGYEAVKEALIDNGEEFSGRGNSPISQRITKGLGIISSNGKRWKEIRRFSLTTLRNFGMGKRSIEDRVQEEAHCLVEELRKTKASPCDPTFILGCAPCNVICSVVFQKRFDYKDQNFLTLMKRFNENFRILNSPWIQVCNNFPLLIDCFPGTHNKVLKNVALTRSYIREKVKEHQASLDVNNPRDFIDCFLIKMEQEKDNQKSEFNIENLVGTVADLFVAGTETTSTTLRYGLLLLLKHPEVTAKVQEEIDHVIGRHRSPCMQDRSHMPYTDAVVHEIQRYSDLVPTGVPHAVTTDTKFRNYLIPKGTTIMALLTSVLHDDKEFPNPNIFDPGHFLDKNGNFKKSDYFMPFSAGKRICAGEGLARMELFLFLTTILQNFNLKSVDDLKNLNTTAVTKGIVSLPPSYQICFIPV
The following applies: microsomes; for CYP2C8 activity expressed as % Vehicle Control: human, 10 min, pH 7.4.

For the next data set, the target named is CYP2C9 (Homo sapiens, UniProt P11712). The following applies: for CYP2C9 activity expressed as % Vehicle Control: HLM, diclofenac.
The target in a further data set is CYP2C19 (Homo sapiens, UniProt P33261). To be noted: microsomes.
In the next data set the target is CYP2D6 (Homo sapiens, UniProt P10635). The following applies: microsomes.
Data set [3] deals with CYP3A4/5. To be noted: microsomes.
The test system of data set [4] is CYP3A4/5. The following applies: microsomes. This is another data set of the same source.
For data set [5] the following is noted: in vivo, 5 mg.

Where two headings read alike, the source gives them in different places. Some results are limits rather than exact numbers.

Sequence of CYP2C9 (P11712 whole entry): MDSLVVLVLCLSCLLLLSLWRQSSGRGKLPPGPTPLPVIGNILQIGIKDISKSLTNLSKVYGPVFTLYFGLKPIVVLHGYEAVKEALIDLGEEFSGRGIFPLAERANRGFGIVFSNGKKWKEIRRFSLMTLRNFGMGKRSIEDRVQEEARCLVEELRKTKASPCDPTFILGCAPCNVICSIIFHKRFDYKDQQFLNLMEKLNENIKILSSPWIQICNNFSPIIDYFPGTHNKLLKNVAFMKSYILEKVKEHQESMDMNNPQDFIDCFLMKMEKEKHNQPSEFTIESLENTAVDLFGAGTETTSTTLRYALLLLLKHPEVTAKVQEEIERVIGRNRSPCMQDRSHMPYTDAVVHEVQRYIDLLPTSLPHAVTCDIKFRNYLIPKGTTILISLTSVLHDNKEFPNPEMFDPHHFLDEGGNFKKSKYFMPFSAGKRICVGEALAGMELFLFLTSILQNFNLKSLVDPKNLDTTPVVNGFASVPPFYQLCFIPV
Sequence of CYP2C19 (P33261 whole entry): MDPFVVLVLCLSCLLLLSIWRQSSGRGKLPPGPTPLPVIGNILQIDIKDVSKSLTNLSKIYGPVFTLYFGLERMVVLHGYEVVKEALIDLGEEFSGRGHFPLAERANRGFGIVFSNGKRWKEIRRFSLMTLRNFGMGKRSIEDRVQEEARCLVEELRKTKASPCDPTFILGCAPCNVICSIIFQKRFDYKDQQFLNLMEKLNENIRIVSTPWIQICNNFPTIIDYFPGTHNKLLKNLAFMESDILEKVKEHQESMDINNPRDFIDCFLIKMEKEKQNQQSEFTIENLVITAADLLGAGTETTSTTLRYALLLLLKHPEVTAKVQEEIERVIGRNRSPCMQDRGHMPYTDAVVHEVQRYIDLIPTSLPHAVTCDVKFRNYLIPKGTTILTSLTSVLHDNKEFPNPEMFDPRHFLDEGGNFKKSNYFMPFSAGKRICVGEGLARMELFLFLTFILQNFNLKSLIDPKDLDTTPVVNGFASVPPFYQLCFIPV
Sequence of CYP2D6 (P10635 whole entry): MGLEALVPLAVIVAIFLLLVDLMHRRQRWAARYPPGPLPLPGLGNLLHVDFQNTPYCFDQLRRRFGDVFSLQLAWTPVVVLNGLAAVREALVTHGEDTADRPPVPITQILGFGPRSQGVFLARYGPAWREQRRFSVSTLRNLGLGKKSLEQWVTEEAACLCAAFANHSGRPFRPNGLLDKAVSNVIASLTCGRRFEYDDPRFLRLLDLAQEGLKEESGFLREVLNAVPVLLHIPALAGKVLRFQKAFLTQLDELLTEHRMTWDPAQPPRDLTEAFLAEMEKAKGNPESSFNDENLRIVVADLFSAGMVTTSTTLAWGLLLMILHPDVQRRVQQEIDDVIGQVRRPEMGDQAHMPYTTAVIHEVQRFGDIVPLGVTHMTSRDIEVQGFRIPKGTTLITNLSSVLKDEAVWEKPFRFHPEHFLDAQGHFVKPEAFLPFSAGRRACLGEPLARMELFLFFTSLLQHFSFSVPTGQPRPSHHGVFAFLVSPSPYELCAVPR

By IC50 is commonly meant the concentration at which inhibition is half-maximal. Read a low IC50 as greater potency. Turning to `N[C@@H]1C[C@H]1c1ccccc1` (racemic) [Tranylcypromine, reference compound], the IC50 on CYP2B6 stood at 3.4 µM.

In the case of `Cc1nc2c([nH]1)c(=O)n(C)c(=O)n2Cc1ccco1` [Furafylline], the “CYP1A2 activity expressed as % Vehicle Control” value on CYP1A2 (0.01 μM) is 103.9 % Vehicle Control; on CYP1A2 (0.1 μM) it was 110.2 % Vehicle Control; at CYP1A2 (1 μM), 88.5 % Vehicle Control; on CYP1A2 (10 μM), 41.0 % Vehicle Control; at CYP1A2 (100 μM) it was 10.1 % Vehicle Control.

`CCC(C)n1ncn(-c2ccc(N3CCN(c4ccc(OCC5COC(Cn6cncn6)(c6ccc(Cl)cc6Cl)O5)cc4)CC3)cc2)c1=O` (stereo not drawn) [Itraconazole] had an IC50 in the data set with CYP3A4/5 [1] of 30 nM. For the same compound, the IC50 at 5 min with CYP3A4/5 [2] amounted to 210 nM.

`CC(C)(O)c1ccccc1CC[C@@H](SCC1(CC(=O)O)CC1)c1cccc(/C=C/c2ccc3ccc(Cl)cc3n2)c1` [Montelukast, reference compound]: the “CYP2C8 activity expressed as % Vehicle Control” value on CYP2C8 (0.001 μM) was found to be 96.0 % Vehicle Control; at CYP2C8 (0.01 μM) it was 91.3 % Vehicle Control; at CYP2C8 (0.1 μM) it was 66.2 % Vehicle Control; on CYP2C8 (1 μM), 13.3 % Vehicle Control; at CYP2C8 (10 μM) it was 1.3 % Vehicle Control.

Consider `Nc1ccc(S(=O)(=O)Nc2ccnn2-c2ccccc2)cc1` [Sulfaphenazole, reference compound], for which the “CYP2C9 activity expressed as % Vehicle Control” value at CYP2C9 (positive control 0.0025 μM) came to 102.1 % Vehicle Control; on CYP2C9 (positive control 0.025 μM), 95.7 % Vehicle Control; on CYP2C9 (positive control 0.25 μM), 47.2 % Vehicle Control; at CYP2C9 (positive control 2.5 μM) it was 10.1 % Vehicle Control; on CYP2C9 (positive control 25 μM) it was 1.9 % Vehicle Control.

As a reminder, the Ki is a measure of affinity in units of concentration, obtained from inhibition or displacement. Read a high Ki as weaker binding. Usually Cmax stands for the highest concentration seen after dosing. Compound phenylcapsaicyn displayed a Ki on CYP1A2 of 340 nM. In addition, at CYP2B6, the IC50 is over 50 µM and the “Inhibition of CYP2B6 in words” value is “no significant inhibition”. Further, at CYP2C8, the half-inhibitory concentration (IC50) is over 50 µM and the “Inhibition of CYP2C8 in words” value is reported as “no significant inhibition”. Also, on CYP2C9 (microsomes), the IC50 was over 50 µM and the “Inhibition of CYP2C9 in words” value was “no significant inhibition”. In addition, at CYP2C19, the half-maximal inhibitory concentration (IC50) was over 50 µM and the “Inhibition of CYP2C19 in words” value is “no significant inhibition”. Besides, at CYP2D6, the Ki was 550 nM. Besides, in the data set on CYP3A4/5 [3], the IC50 is over 50 µM and the “Inhibition of CYP3A4/5 in words (midazolam)” value is listed as “no significant inhibition”. For the same compound, in the data set with CYP3A4/5 [4], the IC50 was over 50 µM and the “Inhibition of CYP3A4/5 in words (testosterone)” value is “no significant inhibition”. Besides, the Cmax in data set [5] is about 600 nM.
